Results reported in ChEMBL document CHEMBL4482311, “Modulators of Prostate-Specific G-Protein Receptor (PSGR/OR51E2) and Methods of Using Same” (2018).
Active and inactive are the calls of the source.

Assays:
Assay type in all cases: cell-based
[1] = target: T1, Olfactory receptor 51E2 (Homo sapiens) (UniProt Q9H255); assay: Agonist activity at PSGR/OR51E2 in human LNCaP cells assessed as induction of change in intracellular metabolites level by measuring threonine level at 100 nM incubated for 72 hrs by GC/MS analysis
T1 sequence (whole entry): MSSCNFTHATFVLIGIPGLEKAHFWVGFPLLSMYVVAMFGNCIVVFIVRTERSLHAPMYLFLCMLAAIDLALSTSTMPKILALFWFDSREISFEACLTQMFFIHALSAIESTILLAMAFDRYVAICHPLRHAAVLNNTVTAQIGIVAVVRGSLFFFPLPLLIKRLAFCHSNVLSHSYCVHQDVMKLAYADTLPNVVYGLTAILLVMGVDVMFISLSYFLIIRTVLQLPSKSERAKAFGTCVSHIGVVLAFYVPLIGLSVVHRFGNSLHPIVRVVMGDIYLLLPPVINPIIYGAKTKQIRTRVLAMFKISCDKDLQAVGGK

[2] = target: T1, Olfactory receptor 51E2 (Homo sapiens); assay: Agonist activity at PSGR/OR51E2 in human LNCaP cells assessed as induction of change in extracellular metabolites level by measuring glutaric acid level at 100 nM incubated for 72 hrs by GC/MS analysis
[3] = target: T1, Olfactory receptor 51E2 (Homo sapiens); assay: Agonist activity at PSGR/OR51E2 in human LNCaP cells assessed as induction of change in extracellular metabolites level by measuring asparagine level at 100 nM incubated for 72 hrs by GC/MS analysis
[4] = target: T1, Olfactory receptor 51E2 (Homo sapiens); assay: Agonist activity at PSGR/OR51E2 in human LNCaP cells assessed as induction of change in intracellular metabolites level by measuring malic acid level at 100 nM incubated for 72 hrs by GC/MS analysis
[5] = target: T1, Olfactory receptor 51E2 (Homo sapiens); assay: Agonist activity at PSGR/OR51E2 in human LNCaP cells assessed as induction of change in intracellular metabolites level by measuring fructose-6-phosphate level at 100 nM incubated for 72 hrs by GC/MS analysis
[6] = target: T1, Olfactory receptor 51E2 (Homo sapiens); assay: Agonist activity at PSGR/OR51E2 in human LNCaP cells assessed as induction of change in intracellular metabolites level by measuring beta-alanine level at 100 nM incubated for 72 hrs by GC/MS analysis
[7] = target: T1, Olfactory receptor 51E2 (Homo sapiens); assay: Agonist activity at PSGR/OR51E2 in human LNCaP cells assessed as induction of change in extracellular metabolites level by measuring hydroxyprolines level at 100 nM incubated for 72 hrs by GC/MS analysis
[8] = target: T1, Olfactory receptor 51E2 (Homo sapiens); assay: Agonist activity at PSGR/OR51E2 in human LNCaP cells assessed as induction of change in extracellular metabolites level by measuring hydroquinone level at 100 nM incubated for 72 hrs by GC/MS analysis
[9] = target: T1, Olfactory receptor 51E2 (Homo sapiens); assay: Agonist activity at PSGR/OR51E2 in human LNCaP cells assessed as induction of change in extracellular metabolites level by measuring 2-deoxyglucose level at 100 nM incubated for 72 hrs by GC/MS analysis
[10] = target: T1, Olfactory receptor 51E2 (Homo sapiens); assay: Agonist activity at PSGR/OR51E2 in human LNCaP cells assessed as induction of neuroendocrine trans-differentiation related gene expression by measuring increase in NSE mRNA expression incubated for 12 days by RT-PCR analysis
[11] = target: T1, Olfactory receptor 51E2 (Homo sapiens); assay: Agonist activity at PSGR/OR51E2 in human LNCaP cells assessed as induction of change in intracellular metabolites level by measuring glucose-6-phosphate level at 100 nM incubated for 72 hrs by GC/MS analysis
[12] = target: T1, Olfactory receptor 51E2 (Homo sapiens); assay: Agonist activity at PSGR/OR51E2 in human LNCaP cells assessed as induction of change in intracellular metabolites level by measuring tyramine level at 100 nM incubated for 72 hrs by GC/MS analysis
[13] = target: T1, Olfactory receptor 51E2 (Homo sapiens); assay: Agonist activity at PSGR/OR51E2 in human LNCaP cells assessed as induction of change in extracellular metabolites level by measuring 2-ketoleucine level at 100 nM incubated for 72 hrs by GC/MS analysis
[14] = target: T1, Olfactory receptor 51E2 (Homo sapiens); assay: Agonist activity at PSGR/OR51E2 in human LNCaP cells assessed as induction of change in intracellular metabolites level by measuring urea level at 100 nM incubated for 72 hrs by GC/MS analysis
[15] = target: T1, Olfactory receptor 51E2 (Homo sapiens); assay: Agonist activity at PSGR/OR51E2 in human LNCaP cells assessed as induction of change in intracellular metabolites level by measuring serine level at 100 nM incubated for 72 hrs by GC/MS analysis
[16] = target: T1, Olfactory receptor 51E2 (Homo sapiens); assay: Agonist activity at PSGR/OR51E2 in human LNCaP cells assessed as induction of change in intracellular metabolites level by measuring adenosine/inosine level at 100 nM incubated for 72 hrs by GC/MS analysis
[17] = target: T1, Olfactory receptor 51E2 (Homo sapiens); assay: Agonist activity at PSGR/OR51E2 in human LNCaP cells assessed as induction of change in extracellular metabolites level by measuring succinic acid level at 100 nM incubated for 72 hrs by GC/MS analysis
[18] = target: T1, Olfactory receptor 51E2 (Homo sapiens); assay: Agonist activity at PSGR/OR51E2 in human LNCaP cells assessed as induction of neuroendocrine trans-differentiation related gene expression by measuring increase in AMACR mRNA expression incubated for 12 days by RT-PCR analysis
[19] = target: T1, Olfactory receptor 51E2 (Homo sapiens); assay: Agonist activity at PSGR/OR51E2 in human LNCaP cells assessed as induction of change in intracellular metabolites level by measuring pantothenic acid level at 100 nM incubated for 72 hrs by GC/MS analysis
[20] = target: T1, Olfactory receptor 51E2 (Homo sapiens); assay: Agonist activity at PSGR/OR51E2 in human LNCaP cells assessed as induction of change in intracellular metabolites level by measuring tyrosine level at 100 nM incubated for 72 hrs by GC/MS analysis
[21] = target: T1, Olfactory receptor 51E2 (Homo sapiens); assay: Agonist activity at PSGR/OR51E2 in human LNCaP cells assessed as induction of change in extracellular metabolites level by measuring urea level at 100 nM incubated for 72 hrs by GC/MS analysis
[22] = target: T1, Olfactory receptor 51E2 (Homo sapiens); assay: Agonist activity at PSGR/OR51E2 in human LNCaP cells assessed as induction of change in extracellular metabolites level by measuring benzoic-acid level at 100 nM incubated for 72 hrs by GC/MS analysis
[23] = target: T1, Olfactory receptor 51E2 (Homo sapiens); assay: Agonist activity at PSGR/OR51E2 in human LNCaP cells assessed as induction of change in intracellular metabolites level by measuring fumaric acid level at 100 nM incubated for 72 hrs by GC/MS analysis
[24] = target: T1, Olfactory receptor 51E2 (Homo sapiens); assay: Agonist activity at PSGR/OR51E2 in human LNCaP cells assessed as induction of change in extracellular metabolites level by measuring n-acetylaspartic acid level at 100 nM incubated for 72 hrs by GC/MS analysis
[25] = target: T1, Olfactory receptor 51E2 (Homo sapiens); assay: Agonist activity at PSGR/OR51E2 in human LNCaP cells assessed as induction of change in extracellular metabolites level by measuring alpha-ketoglutaric acid level at 100 nM incubated for 72 hrs by GC/MS analysis
[26] = target: T1, Olfactory receptor 51E2 (Homo sapiens); assay: Agonist activity at PSGR/OR51E2 in human LNCaP cells assessed as induction of change in extracellular metabolites level by measuring guanine level at 100 nM incubated for 72 hrs by GC/MS analysis
[27] = target: T1, Olfactory receptor 51E2 (Homo sapiens); assay: Agonist activity at PSGR/OR51E2 in human LNCaP cells assessed as induction of neuroendocrine trans-differentiation related gene expression by measuring increase in OR51E2 mRNA expression incubated for 12 days by RT-PCR analysis
[28] = target: T1, Olfactory receptor 51E2 (Homo sapiens); assay: Agonist activity at PSGR/OR51E2 in human LNCaP cells assessed as induction of change in extracellular metabolites level by measuring cysteine level at 100 nM incubated for 72 hrs by GC/MS analysis
[29] = target: T1, Olfactory receptor 51E2 (Homo sapiens); assay: Agonist activity at PSGR/OR51E2 in human LNCaP cells assessed as induction of change in intracellular metabolites level by measuring lactic acid level at 100 nM incubated for 72 hrs by GC/MS analysis
[30] = target: T1, Olfactory receptor 51E2 (Homo sapiens); assay: Agonist activity at PSGR/OR51E2 in human LNCaP cells assessed as induction of change in intracellular metabolites level by measuring alanine level at 100 nM incubated for 72 hrs by GC/MS analysis
[31] = target: T1, Olfactory receptor 51E2 (Homo sapiens); assay: Agonist activity at PSGR/OR51E2 in human LNCaP cells assessed as induction of change in intracellular metabolites level by measuring guanine level at 100 nM incubated for 72 hrs by GC/MS analysis
[32] = target: T1, Olfactory receptor 51E2 (Homo sapiens); assay: Agonist activity at PSGR/OR51E2 in human LNCaP cells assessed as induction of change in extracellular metabolites level by measuring beta-alanine level at 100 nM incubated for 72 hrs by GC/MS analysis
[33] = target: T1, Olfactory receptor 51E2 (Homo sapiens); assay: Agonist activity at PSGR/OR51E2 in human LNCaP cells assessed as induction of change in extracellular metabolites level by measuring glyceric acid level at 100 nM incubated for 72 hrs by GC/MS analysis

Measured: Activity

C[C@]12CC[C@H]3[C@@H](CCC4=CC(=O)CC[C@@]43CO)[C@@H]1CCC2=O
active: [1] | [2] | [3] | [4] | [5] | [6] | [7] | [8] | [9] | [10] | [11] | [12] | [13] | [14] | [15] | [16] | [17] | [18] | [19] | [20] | [21] | [22] | [23] | [24] | [25] | [26] | [27] | [28] | [29] | [30] | [31] | [32] | [33]
